# Assay results published in patent publication US20240409536A1, “COMPOUNDS AND METHODS FOR MODULATING SPLICING” (REMIX THERAPEUTICS INC., priority 2021, published 2024).
# pIC50: −log10 of the molar value.
# Legend:
# HTT mRNA = experiment: Gene panel canonical junction qPCR assay, HTT CJ mRNA decrease; type: cell-based, human; conditions: Homo sapiens, canonical junction qPCR, read-out: HTT IC50 (decrease in CJ mRNA levels)
# How it was run: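 IC50 values describe loss of canonical-junction transcript, fitted by 4-parameter logistic to percent response derived from fixed ΔCt windows. Read-out: RT-qPCR on lysates of compound-treated K562 or A673 cells, probes overlapping the exon junction, ΔΔCt versus housekeeping gene and DMSO control.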
# Target C = experiment: HiBiT protein abundance assay, Target C (K562 HiBiT knock-in cells); type: cell-based, human; conditions: 24 hours
# How it was run: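 Protein abundance read by HiBiT lytic luminescence after 24 h compound exposure (37 °C) of knock-in K562 cells, 10000 cells/well in IMDM+1% FBS. Dosing: 10 points, 3-fold, top 10 μM final, ≤0.25% DMSO. Four-parameter logistic fit gave concentration reducing abundance to 50% of untreated control.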
SMILES,pIC50 (HTT mRNA),pIC50 (Target C)
Cc1cn2cc(NC(=O)c3ccc(N4C[C@@H](C)N[C@@H](C)C4)c4cccnc34)cc(F)c2n1 [Compound 340],5.00 to 6.00,< 5.00
Cc1cn2cc(NC(=O)c3ccc(N4CCNC5(CC5)C4)c4cccnc34)cc(F)c2n1 [Compound 341],5.00 to 6.00,< 5.00
COc1nc2c(F)cc(NC(=O)c3ccc(N4C[C@@H](C)N[C@@H](C)C4)c4nccnc34)cc2o1 [Compound 342],< 5.00,< 5.00
C[C@@H]1CN(c2ccc(C(=O)Nc3cc(F)c4cnccc4c3)c3nccnc23)C[C@H](C)N1 [Compound 343],5.00 to 6.00,5.00 to 6.00
C[C@@H]1CN(c2ccc(C(=O)Nc3cc(F)c4ncccc4c3)c3nccnc23)C[C@H](C)N1 [Compound 344],< 5.00,< 5.00
Cc1cn2cc(NC(=O)c3ccc(N4CCNCC4)c4nncnc34)cc(F)c2n1 [Compound 345],5.00 to 6.00,5.00 to 6.00
Cc1cn2cc(NC(=O)c3ccc(N4C[C@@H](C)N[C@@H](C)C4)c4ncc(OC5CC5)nc34)cc(F)c2n1 [Compound 351],5.00 to 6.00,< 5.00
COc1nc(NC(=O)c2ccc(N3C[C@@H](C)N[C@@H](C)C3)c3nccnc23)cc2cn(C)nc12 [Compound 352],5.00 to 6.00,5.00 to 6.00
Cc1ccc2cc(NC(=O)c3ccc(N4C[C@@H](C)N[C@@H](C)C4)c4nccnc34)cc(F)c2n1 [Compound 353],< 5.00,< 5.00
Cc1cn2nc(NC(=O)c3ccc(N4C[C@@H](C)N[C@@H](C)C4)c4nccnc34)cc2c(C)n1 [Compound 354],6.00 to 7.00,6.00 to 7.00
Cc1cn2cc(NC(=O)c3ccc(N4C[C@@H](C)N(O)[C@@H](C)C4)c4nccnc34)cc(F)c2n1 [Compound 355],< 5.00,5.00 to 6.00
Cc1cn2cc(NC(=O)c3ccc(N4CCC(N)(CF)CC4)c4nccnc34)cc(F)c2n1 [Compound 356],5.00 to 6.00,5.00 to 6.00
COc1cn2cc(NC(=O)c3ccc(N4C[C@@H](C)N[C@@H](C)C4)c4nccnc34)cc(F)c2n1 [Compound 357],< 5.00,< 5.00
Cc1cn2cc(NC(=O)c3ccc(N4C[C@@H](C)N[C@@H](C)C4)c4ncccc34)cc(F)c2n1 [Compound 358],< 5.00,< 5.00
Cc1cn2cc(NC(=O)c3ccc(N4C[C@@H](C)N[C@@H](C)C4)c4nccnc34)nc2c(C)n1 [Compound 359],< 5.00,< 5.00
C[C@@H]1CN(c2ccc(C(=O)Nc3cc(F)c4nc(O)cn4c3)c3nccnc23)C[C@H](C)N1 [Compound 360],< 5.00,< 5.00
Cc1cn2cc(NC(=O)c3ccc(N4CCN[C@H](CO)C4)c4nccnc34)cc(F)c2n1 [Compound 362],5.00 to 6.00,5.00 to 6.00
Cc1cn2cc(NC(=O)c3ccc(N4CCNC5(CCC5)C4)c4nccnc34)cc(F)c2n1 [Compound 363],5.00 to 6.00,5.00 to 6.00
Cc1cn2cc(NC(=O)c3ccc(N4CCN(C)C5(CC5)C4)c4nccnc34)cc(F)c2n1 [Compound 364],6.00 to 7.00,5.00 to 6.00
CCN1CCN(c2ccc(C(=O)Nc3cc(F)c4nc(C)cn4c3)c3nccnc23)CC12CC2 [Compound 365],6.00 to 7.00,5.00 to 6.00
Cc1cn2cc(NC(=O)c3ccc(N4CCN[C@H](CF)C4)c4nccnc34)cc(F)c2n1 [Compound 366],5.00 to 6.00,5.00 to 6.00
Cc1cn2cc(NC(=O)c3ccc(N4CCN[C@@H](CF)C4)c4nccnc34)cc(F)c2n1 [Compound 367],5.00 to 6.00,5.00 to 6.00
Cc1cn2cc(NC(=O)c3ccc(N4CCNC(C)(CO)C4)c4nccnc34)cc(F)c2n1 (stereo not drawn) [Compound 368],5.00 to 6.00,5.00 to 6.00
Cc1cn2cc(NC(=O)c3ccc(N4CCN(CCO)C5(CC5)C4)c4nccnc34)cc(F)c2n1 [Compound 369],5.00 to 6.00,5.00 to 6.00
